Experimental data as given in patent publication US9839642B2, “Beta-tetrazolyl-propionic acids as metallo-beta-lactamase inhibitors” (priority 2014, dated 2017).
Where two headings read alike, the source gives them in different places.

What was measured:
NDM-1 = NDM-1 (Klebsiella pneumoniae, UniProt C7C422); assay: Enzyme activity: determination of IC50, fluorescence assay with CCF2-FA substrate; format: biochemical; settings: CCF2-FA 1.25 μM, 2 hours at 25° C., read-out: NDM1 IC50
Procedure, shortened: (§1)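 Read-out: fluorescence, ex 405 nm / em 460 nm, after 2 h at 25° C with 1.25 μM CCF2-FA. Buffer 100 mM KH2PO4 pH 7, 0.005% Tween-20, 10 μM ZnSO4; enzyme 1 pM NDM-1, 2 pM IMP-1, 30 pM VIM-1. IC50 by 4-parameter fit.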

VIM-1 = VIM-1 (Pseudomonas aeruginosa, UniProt A0A0F7KYQ8); assay: as above; format: biochemical; settings: CCF2-FA 1.25 μM, 2 hours at 25° C., read-out: VIM1 IC50
Procedure, shortened: as §1

IMP-1 = IMP-1 (Serratia marcescens, UniProt P52699); assay: as above; format: biochemical; settings: CCF2-FA 1.25 μM, 2 hours at 25° C., read-out: IMP1 IC50
Sequence of IMP-1 (P52699 19-246, looked up, species assumed): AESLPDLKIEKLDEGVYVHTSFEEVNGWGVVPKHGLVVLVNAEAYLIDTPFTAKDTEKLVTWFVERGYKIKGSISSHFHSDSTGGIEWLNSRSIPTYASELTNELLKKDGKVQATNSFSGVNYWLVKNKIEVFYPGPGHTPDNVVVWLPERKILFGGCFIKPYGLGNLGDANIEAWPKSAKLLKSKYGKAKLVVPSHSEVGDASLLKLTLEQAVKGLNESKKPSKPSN
Procedure, shortened: as §1

[1] = test system: Klebsiella pneumoniae expressing VIM-1 (IHMA599644); assay: Antibiotic potentiation activity: synergistic concentration (MITC95) with imipenem, growth by OD600; format: cell-based
Procedure, shortened: (§2)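 Strains grown overnight at 35° C, resuspended in saline, diluted 1:100 into 1.1×CAMHB; imipenem at 1 μg/ml or 4 μg/ml with test compound 200 μM to 0.195 μM. Incubated 22 hours to 24 hours at 35° C, OD600 read; MITC95 is lowest compound concentration inhibiting 95% of growth.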

[2] = test system: Serratia marcescens expressing IMP-1 (CL5741); assay: as above; format: cell-based
Procedure, shortened: as §2

[3] = test system: Escherichia coli expressing NDM-1 (CLB30005); assay: as above; format: cell-based
Procedure, shortened: as §2

[4] = 95% inhibition of bacterial growth, strain IHMA599644
[5] = 95% inhibition of bacterial growth, strain CL5741
[6] = 95% inhibition of bacterial growth, strain CLB30005

Sequence of NDM-1 (C7C422 29-270, looked up, species assumed): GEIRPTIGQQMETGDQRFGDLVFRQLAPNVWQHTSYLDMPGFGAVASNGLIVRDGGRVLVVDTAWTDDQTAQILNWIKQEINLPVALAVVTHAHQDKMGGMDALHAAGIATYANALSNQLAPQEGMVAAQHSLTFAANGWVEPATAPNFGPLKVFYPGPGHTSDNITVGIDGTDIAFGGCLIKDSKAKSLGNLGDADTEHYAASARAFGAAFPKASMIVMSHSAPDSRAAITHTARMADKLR

Row | Compound | IC50 (NDM-1; enzyme 1 pM) | IC50 (VIM-1; enzyme 30 pM) | IC50 (IMP-1; enzyme 2 pM) | VIM1 KP599644 MITC95 [1, 4] | IMP1 SM5741 MITC95 [2, 5] | NDM1 EC30005 MITC95 [3, 6] | IC50 (NDM-1; NDM-1 enzyme 1 pM) | IC50 (VIM-1; VIM-1 enzyme 30 pM) | IC50 (IMP-1; IMP-1 enzyme 2 pM) | VIM1 KP599644 MITC95 ([1]; K. pneumoniae IHMA599644 (VIM-1), 95% inhibition of growth) | IMP1 SM5741 MITC95 ([2]; S. marcescens CL5741 (IMP-1), 95% inhibition of growth) | NDM1 EC30005 MITC95 ([3]; E. coli CLB30005 (NDM-1), 95% inhibition of growth)
1 | O=C(O)[C@@H](CCCC(F)(F)F)[C@H](Cc1ccccc1)c1nnn[nH]1 [Example 6, (S)-6,6,6-trifluoro-2-((S)-2-phenyl-1-(1H-tetrazol-5-yl)ethyl)hexanoic acid] | 0.24 µM | 0.13 µM | 0.73 µM | >200 µM | 106.3 µM | 75 µM | – | – | – | – | – | –
2 | O=C(O)[C@@H](CCCC1CCNCC1)[C@H](Cc1ccccc1)c1nnn[nH]1 [Example 36, (S)-2-((S)-2-phenyl-1-(1H-tetrazol-5-yl)ethyl)-5-(piperidin-4-yl)pentanoic acid] | 0.03 µM | 0.021 µM | 2 µM | 100 µM | 108 µM | 60 µM | – | – | – | – | – | –
3 | CCC[C@H](C(=O)O)[C@H](Cc1ccc(CCC(O)CO)cc1)c1nn[nH]n1 (stereo partly drawn) [Example 255, (2S)-2-[(1S)-2-[4-(3,4-dihydroxybutyl)phenyl]-1-(2H-tetrazol-5-yl)ethyl]pentanoic acid] | – | – | – | – | – | – | 0.044 µM | 0.012 µM | 0.19 µM | 50 µM | 18.8 µM | 10.4 µM
4 | CCC[C@H](C(=O)O)[C@H](Cc1ccc(-c2ccncc2)cc1)c1nn[nH]n1 [Example 198, (2S)-2-[(1S)-2-(4-pyridin-4-ylphenyl)-1-(2H-tetrazol-5-yl)ethyl]pentanoic acid] | 0.014 µM | 0.0012 µM | 0.075 µM | 18.8 µM | 6.2 µM | 6.2 µM | – | – | – | – | – | –
5 | CCC[C@H](C(=O)O)[C@H](Cc1ccc(-c2cccc(CN3CCCCC3)c2)cc1)c1nn[nH]n1 [Example 206, (2S)-2-[(1S)-2-[3′-(piperidin-1-ylmethyl)biphenyl-4-yl]-1-(2H-tetrazol-5-yl)ethyl]pentanoic acid] | 0.082 µM | 0.0072 µM | 0.13 µM | 50 µM | 18.8 µM | 18.8 µM | – | – | – | – | – | –
6 | CCC[C@H](C(=O)O)[C@H](Cc1ccc(Cl)cn1)c1nnn[nH]1 [Example 83, (S)-2-((S)-2-(5-chloropyridin-2-yl)-1-(1H-tetrazol-5-yl)ethyl)pentanoic acid] | 0.88 µM | 0.071 µM | > 20 µM | 100 µM | >200 µM | 8.3 µM | – | – | – | – | – | –
7 | CCC[C@H](C(=O)O)[C@H](Cc1ccc(-c2cccc(C(N)=O)c2)cc1)c1nn[nH]n1 [Example 201, (2S)-2-[(1S)-2-(3′-carbamoylbiphenyl-4-yl)-1-(2H-tetrazol-5-yl)ethyl]pentanoic acid] | 0.009 µM | 0.0021 µM | 0.029 µM | 62 µM | 12.5 µM | 7.8 µM | – | – | – | – | – | –
8 | CCC[C@@H](C(=O)O)[C@H](Cc1ccccc1)c1nnn[nH]1 [Example 5, (R)-2-((S)-2-phenyl-1-(1H-tetrazol-5-yl)ethyl)pentanoic acid] | 0.23 µM | 0.061 µM | 1.5 µM | 200 µM | >200 µM | 62.5 µM | – | – | – | – | – | –
9 | CCC[C@H](C(=O)O)[C@H](Cc1ccc(-c2ccc(N3CCOCC3)nc2)cc1)c1nn[nH]n1 [Example 203, (2S)-2-[(1S)-2-[4-(6-morpholin-4-ylpyridin-3-yl)phenyl]-1-(2H-tetrazol-5-yl)ethyl]pentanoic acid] | 0.014 µM | 0.0043 µM | 0.06 µM | 200 µM | 9.4 µM | 9.4 µM | – | – | – | – | – | –
10 | CCC[C@H](C(=O)O)[C@H](Cc1ccc(-c2c(C)nn(C)c2C)nc1)c1nnn[nH]1 [Example 158, (S)-2-((S)-1-(1H-tetrazol-5-yl)-2-(6-(1,3,5-trimethyl-1H-pyrazol-4-yl)pyridin-3-yl)ethyl)pentanoic acid] | 0.014 µM | 0.025 µM | 0.061 µM | 100 µM | 12.5 µM | 62 µM | – | – | – | – | – | –
11 | O=C(O)[C@@H](CCF)[C@H](Cc1ccccc1)c1nnn[nH]1 [Example 21, (2S,3S)-2-(2-fluoroethyl)-4-phenyl-3-(1H-tetrazol-5-yl)butanoic acid] | 0.19 µM | 0.015 µM | 2.7 µM | >200 µM | >200 µM | 75 µM | – | – | – | – | – | –
12 | CCC[C@H](C(=O)O)[C@H](Cc1ccc(-c2ccc(C(=O)NC)cc2)cc1)c1nn[nH]n1 [Example 202, (2S)-2-[(1S)-2-[4′-(methylcarbamoyl)biphenyl-4-yl]-1-(2H-tetrazol-5-yl)ethyl]pentanoic acid] | 0.0059 µM | 0.0023 µM | 0.022 µM | 50 µM | 4.7 µM | 9.4 µM | – | – | – | – | – | –
13 | CCC[C@H](C(=O)O)[C@H](Cc1ccc(-c2c(C)nn(C)c2C)cc1)c1nnn[nH]1 [Example 235, (2S)-2-{(1S)-1-(1H-tetrazol-5-yl)-2-[4-(1,3,5-trimethyl-1H-pyrazol-4-yl)phenyl]ethyl}pentanoic acid] | 0.0083 µM | 0.0076 µM | 0.0058 µM | >200 µM | 0.78 µM | 100 µM | – | – | – | – | – | –
14 | O=C(O)[C@@H](CC(F)F)[C@H](Cc1ccccc1)c1nnn[nH]1 [Example 22, (2S,3S)-2-(2,2-difluoroethyl)-4-phenyl-3-(1H-tetrazol-5-yl)butanoic acid] | 0.28 µM | 0.014 µM | 2.6 µM | 50 µM | 200 µM | 31 µM | – | – | – | – | – | –
15 | CC[C@H](C)[C@H](C(=O)O)[C@H](Cc1ccc(-c2ccc(-c3nnn[nH]3)cc2)cc1)c1nn[nH]n1 [Example 58, (2S,3S)-2-((S)-2-(4′-(1H-tetrazol-5-yl)-[1,1′-biphenyl]-4-yl)-1-(2H-tetrazol-5-yl)ethyl)-3-methylpentanoic acid] | < 0.00064 µM | 0.0051 µM | 0.0014 µM | 200 µM | 12.9 µM | 18.8 µM | – | – | – | – | – | –
16 | CCC[C@H](C(=O)O)[C@H](Cc1ccc(-c2ccc3nncn3c2)cc1)c1nnn[nH]1 [Example 239, (2S)-2-[(1S)-1-(1H-tetrazol-5-yl)-2-(4-[1,2,4]triazolo[4,3-a]pyridin-6-ylphenyl)ethyl]pentanoic acid] | 0.02 µM | 0.0017 µM | 0.19 µM | 75 µM | 38 µM | 38 µM | – | – | – | – | – | –
17 | CCC[C@H](C(=O)O)[C@H](Cc1ccc(-c2cccc(CN3CCOCC3)c2)cc1)c1nn[nH]n1 [Example 207, (2S)-2-[(1S)-2-[3′-(morpholin-4-ylmethyl)biphenyl-4-yl]-1-(2H-tetrazol-5-yl)ethyl]pentanoic acid] | 0.064 µM | 0.008 µM | 0.1 µM | 150 µM | 16 µM | 16 µM | – | – | – | – | – | –
18 | CCC[C@H](C(=O)O)[C@H](Cc1ccc(-c2cnc(N3CCCCC3)s2)cc1)c1nn[nH]n1 [Example 204, (2S)-2-[(1S)-2-[4-(2-piperidin-1-yl-1,3-thiazol-5-yl)phenyl]-1-(2H-tetrazol-5-yl)ethyl]pentanoic acid] | 0.0034 µM | 0.0021 µM | 0.026 µM | 100 µM | 4.7 µM | 3.9 µM | – | – | – | – | – | –
19 | CC(C)C[C@H](C(=O)O)[C@@H](c1nnn[nH]1)[C@H](C)c1ccccc1 [Example 27, (2S,3S,4S)-2-isobutyl-4-phenyl-3-(1H-tetrazol-5-yl)pentanoic acid] | 0.016 µM | 0.0077 µM | 0.062 µM | 37.5 µM | 13 µM | 15.6 µM | – | – | – | – | – | –
20 | O=C(O)[C@@H](CCCCc1ccccc1)[C@H](Cc1ccc2c(c1)OCO2)c1nnn[nH]1 [Example 37, (2S)-2-[(1S)-2-(1,3-benzodioxol-5-yl)-1-(2H-tetrazol-5-yl)ethyl]-6-phenylhexanoic acid] | 0.027 µM | 0.01 µM | 0.12 µM | >200 µM | 106 µM | 200 µM | – | – | – | – | – | –
